SMILES strings stand for the structures. Structures can show the parent of a compound that is named as a salt.

For experiment [1], the target named is KDR (phospho-KDR, VEGF165-stimulated HUVEC cells) (Homo sapiens (Human), UniProt P35968). Briefly: KDR autophosphorylation ELISA in HUVEC cells (Example G). The experiment is classed as cell-based. The following applies: cellular activity; KDR autophosphorylation ELISA in HUVEC cells. The method, boiled down:
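Read-out: phospho-KDR in cell lysates by DuoSet IC ELISA, normalised between VEGF-stimulated DMSO wells (100%) and unstimulated wells (0%). Human endothelial cells were starved overnight in serum-free medium, exposed to compound for 1 h, and then pulsed with 100 ng/mL VEGF165 for 5 min.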

Experiment [2] concerns the target Mer (phospho-Mer, MERTK-transfected 293A cells) (Homo sapiens (Human), UniProt Q12866). Nature of the experiment: Mer autophosphorylation ELISA in transient transfected 293A cells (Example H). The experiment is classed as cell-based. The following applies: cellular activity; Mer autophosphorylation ELISA in transient transfected 293A cells. The procedure, abridged: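 MERTK-transfected 293A; 8-pt dose, 1 h, serum-free, 0.3% DMSO. Cold lysis with orthovanadate and protease/phosphatase inhibitors. Phospho-Mer by DuoSet IC ELISA vs phospho-Mer standard. IC50: 4-PL fit; DMSO = 100%, reference inhibitor = 0%.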

In experiment [3] the target is Human MER (residues 528-999) (Homo sapiens (Human), UniProt Q12866). Briefly: Human Mer kinase assay, HTRF KinEase (Example C-2). In kind it is biochemical. The following applies: protocol of Example C-2 (other compounds). The procedure, abridged:
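HTRF KinEase TK assay with MER 528-999 (1 ng/well) in enzymatic buffer plus 5 mM MgCl2 and 1 mM DTT, biotinylated peptide substrate and ATP at Km (40 μM), 3% DMSO final, 60 min at room temperature. Stopped with EDTA detection mix (SA-XL665, TK antibody-Eu3+), read at 665/620 nm after 60 min; IC50 from 10-point 4-parameter fit, normalized to DMSO and 1 μM reference.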

Experiment [4] addresses Human KDR (residues 790-1356) (Homo sapiens (Human), UniProt P35968). Briefly: Human KDR kinase assay, HTRF KinEase (Example B-2). In kind it is biochemical. The following applies: protocol of Example B-2 (other compounds). The procedure, abridged:
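Ten compound concentrations (3% DMSO final) were pre-plated, then KDR (790-1356) with biotinylated peptide in Mg/Mn/DTT buffer was added; ATP at Km (4.0 μM) started a 40 min room-temperature reaction. Detection used Eu-TK antibody and SA-XL665 in EDTA buffer; activity normalized to DMSO and reference inhibitor, IC50 by logistic fit.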

Sequence of KDR (phospho-KDR, VEGF165-stimulated HUVEC cells) (P35968 20-1356): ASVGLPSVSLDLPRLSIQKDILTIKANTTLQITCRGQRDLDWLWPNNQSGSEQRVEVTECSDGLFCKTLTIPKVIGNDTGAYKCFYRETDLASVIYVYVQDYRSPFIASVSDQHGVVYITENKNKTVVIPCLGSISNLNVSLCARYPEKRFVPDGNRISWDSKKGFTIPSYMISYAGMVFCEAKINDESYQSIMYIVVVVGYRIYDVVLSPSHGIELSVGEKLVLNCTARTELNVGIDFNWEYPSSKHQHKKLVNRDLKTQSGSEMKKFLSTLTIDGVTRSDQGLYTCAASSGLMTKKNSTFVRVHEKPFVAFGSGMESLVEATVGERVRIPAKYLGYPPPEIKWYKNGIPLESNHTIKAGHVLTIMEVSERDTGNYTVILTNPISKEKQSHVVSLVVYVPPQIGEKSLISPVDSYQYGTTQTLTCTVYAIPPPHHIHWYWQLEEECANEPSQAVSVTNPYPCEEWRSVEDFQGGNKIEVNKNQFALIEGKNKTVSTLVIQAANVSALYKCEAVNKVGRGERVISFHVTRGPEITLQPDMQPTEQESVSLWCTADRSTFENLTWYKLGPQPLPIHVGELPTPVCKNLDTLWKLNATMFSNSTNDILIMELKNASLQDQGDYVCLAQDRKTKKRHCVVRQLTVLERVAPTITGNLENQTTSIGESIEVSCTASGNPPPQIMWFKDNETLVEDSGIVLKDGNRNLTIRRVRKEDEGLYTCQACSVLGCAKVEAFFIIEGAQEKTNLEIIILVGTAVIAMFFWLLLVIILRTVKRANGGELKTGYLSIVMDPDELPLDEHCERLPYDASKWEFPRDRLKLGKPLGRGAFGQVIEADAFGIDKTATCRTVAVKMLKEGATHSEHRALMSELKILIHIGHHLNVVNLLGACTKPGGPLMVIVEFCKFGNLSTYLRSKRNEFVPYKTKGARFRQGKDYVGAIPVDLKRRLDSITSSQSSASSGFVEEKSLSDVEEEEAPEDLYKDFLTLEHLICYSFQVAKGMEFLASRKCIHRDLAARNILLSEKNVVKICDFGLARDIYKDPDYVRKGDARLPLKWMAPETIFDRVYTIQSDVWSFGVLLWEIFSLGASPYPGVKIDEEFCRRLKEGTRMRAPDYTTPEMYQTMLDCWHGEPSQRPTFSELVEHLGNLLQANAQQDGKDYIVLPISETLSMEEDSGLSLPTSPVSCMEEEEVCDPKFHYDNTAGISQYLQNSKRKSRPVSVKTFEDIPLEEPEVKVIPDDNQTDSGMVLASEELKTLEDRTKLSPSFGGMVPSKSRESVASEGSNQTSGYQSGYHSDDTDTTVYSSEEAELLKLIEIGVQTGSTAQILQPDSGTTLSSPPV
Sequence of Human KDR (residues 790-1356) (P35968 790-1356): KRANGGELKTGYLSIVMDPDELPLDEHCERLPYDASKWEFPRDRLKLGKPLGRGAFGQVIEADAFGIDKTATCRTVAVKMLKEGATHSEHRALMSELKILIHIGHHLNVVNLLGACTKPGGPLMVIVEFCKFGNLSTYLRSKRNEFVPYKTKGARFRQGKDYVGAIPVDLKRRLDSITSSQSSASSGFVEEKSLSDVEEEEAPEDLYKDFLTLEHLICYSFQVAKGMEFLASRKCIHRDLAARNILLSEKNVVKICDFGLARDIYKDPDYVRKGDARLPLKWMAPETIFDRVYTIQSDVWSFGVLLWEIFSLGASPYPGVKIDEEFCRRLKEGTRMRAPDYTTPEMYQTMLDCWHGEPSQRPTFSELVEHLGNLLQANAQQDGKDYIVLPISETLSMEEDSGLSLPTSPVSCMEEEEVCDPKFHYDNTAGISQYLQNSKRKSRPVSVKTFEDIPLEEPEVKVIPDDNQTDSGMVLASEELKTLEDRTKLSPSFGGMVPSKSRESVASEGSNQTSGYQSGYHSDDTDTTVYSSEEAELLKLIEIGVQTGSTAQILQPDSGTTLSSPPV
Sequence of Mer (phospho-Mer, MERTK-transfected 293A cells) (Q12866 21-999): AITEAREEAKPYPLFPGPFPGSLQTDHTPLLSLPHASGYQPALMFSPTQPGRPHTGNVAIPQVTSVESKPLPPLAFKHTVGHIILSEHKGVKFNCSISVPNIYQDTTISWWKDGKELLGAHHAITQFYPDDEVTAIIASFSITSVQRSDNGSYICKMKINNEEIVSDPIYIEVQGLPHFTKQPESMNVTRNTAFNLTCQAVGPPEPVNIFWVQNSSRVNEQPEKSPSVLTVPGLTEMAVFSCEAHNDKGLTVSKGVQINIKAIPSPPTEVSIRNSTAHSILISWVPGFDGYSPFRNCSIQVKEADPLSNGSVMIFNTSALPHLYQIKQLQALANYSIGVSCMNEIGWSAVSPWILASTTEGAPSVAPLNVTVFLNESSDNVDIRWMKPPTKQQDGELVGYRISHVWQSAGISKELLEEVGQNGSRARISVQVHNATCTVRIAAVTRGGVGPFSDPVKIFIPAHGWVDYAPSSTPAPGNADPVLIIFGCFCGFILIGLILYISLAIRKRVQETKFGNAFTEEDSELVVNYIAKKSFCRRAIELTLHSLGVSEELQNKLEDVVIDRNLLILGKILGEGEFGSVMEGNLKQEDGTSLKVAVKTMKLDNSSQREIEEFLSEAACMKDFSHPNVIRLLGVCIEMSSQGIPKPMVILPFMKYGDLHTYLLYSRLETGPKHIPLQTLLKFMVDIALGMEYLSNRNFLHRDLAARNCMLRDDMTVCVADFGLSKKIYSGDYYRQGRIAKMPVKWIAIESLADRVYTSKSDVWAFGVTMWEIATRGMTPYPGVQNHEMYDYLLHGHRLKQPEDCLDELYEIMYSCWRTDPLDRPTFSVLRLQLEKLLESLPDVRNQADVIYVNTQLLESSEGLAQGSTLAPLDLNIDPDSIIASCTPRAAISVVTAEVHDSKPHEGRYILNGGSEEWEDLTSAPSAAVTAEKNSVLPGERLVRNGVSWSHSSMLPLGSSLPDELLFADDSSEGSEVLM
Sequence of Human MER (residues 528-999) (Q12866 528-999): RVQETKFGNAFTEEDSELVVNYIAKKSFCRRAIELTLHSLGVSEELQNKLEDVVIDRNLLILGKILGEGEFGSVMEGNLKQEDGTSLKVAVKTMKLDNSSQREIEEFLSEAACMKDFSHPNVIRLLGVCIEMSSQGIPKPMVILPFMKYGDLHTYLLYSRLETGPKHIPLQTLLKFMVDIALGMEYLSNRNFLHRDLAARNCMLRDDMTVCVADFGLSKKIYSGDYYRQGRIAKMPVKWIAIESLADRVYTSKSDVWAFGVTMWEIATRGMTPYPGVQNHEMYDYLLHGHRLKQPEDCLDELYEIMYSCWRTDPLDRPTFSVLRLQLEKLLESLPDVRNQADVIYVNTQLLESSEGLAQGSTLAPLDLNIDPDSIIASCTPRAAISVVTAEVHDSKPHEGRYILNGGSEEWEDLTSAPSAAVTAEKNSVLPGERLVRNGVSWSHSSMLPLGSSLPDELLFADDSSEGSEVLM

For the molecule `COc1cc2nccc(Oc3ccc(NC(=O)C4=C5CCCN5CC(c5ccc(F)cc5)C4=O)cc3F)c2nc1OC` (racemic) [Compound 373, N-[4-[(6,7-dimethoxy-1,5-naphthyridin-4-yl)oxy]-3-fluorophenyl]-6-(4-fluorophenyl)-7-oxo-2,3,5,6-tetrahydro-1H-indolizine-8-carboxamide], the IC50 in experiment [1] is more than 300 nM; in experiment [2], less than 100 nM; in experiment [3] it was less than 100 nM; in experiment [4], more than 300 nM.

With `COc1cc2nccc(Oc3ccc(NC(=O)C4=C5CCCN5CC(c5ccc(F)cc5)C4=O)cc3F)c2nc1OC` (single isomer, unassigned; enantiomer 1) [Compound 374, N-[4-[(6,7-dimethoxy-1,5-naphthyridin-4-yl)oxy]-3-fluorophenyl]-6-(4-fluorophenyl)-7-oxo-2,3,5,6-tetrahydro-1H-indolizine-8-carboxamide, enantiomer 1], the IC50 in experiment [1] was more than 300 nM; in experiment [2], less than 100 nM; in experiment [3] it was less than 100 nM; in experiment [4], more than 300 nM.

Regarding `COc1cc2nccc(Oc3ccc(NC(=O)c4cn(C)cc(-c5ccc(Cl)cc5)c4=O)cc3F)c2nc1OC` [Compound 38, 5-(4-Chlorophenyl)-N-[4-[(6,7-dimethoxy-1,5-naphthyridin-4-yl)oxy]-3-fluorophenyl]-1-methyl-4-oxopyridine-3-carboxamide hydrochloride], the IC50 in experiment [1] was less than 100 nM; in experiment [2] it was less than 100 nM; in experiment [3] it was less than 100 nM; in experiment [4], 100 to 300 nM.

Consider `COc1cc2nccc(Oc3ccc(NC(=O)c4cn(C)cc(-c5ccccc5)c4=O)cc3)c2nc1OC` [Compound 39, N-[4-[(6,7-Dimethoxy-1,5-naphthyridin-4-yl)oxy]phenyl]-1-methyl-4-oxo-5-phenylpyridine-3-carboxamide hydrochloride], for which the IC50 in experiment [1], in experiment [2], in experiment [3] and in experiment [4] was less than 100 nM in each case.

Take `COc1cnc2c(Oc3ccc(NC(=O)c4cn(C)cc(-c5ccccc5)c4=O)cc3F)ccnc2c1` [Compound 40, N-[3-Fluoro-4-[(7-methoxy-1,5-naphthyridin-4-yl)oxy]phenyl]-1-methyl-4-oxo-5-phenylpyridine-3-carboxamide hydrochloride]: the IC50 is less than 100 nM in experiment [1], less than 100 nM in experiment [2], less than 100 nM in experiment [3] and more than 300 nM in experiment [4].

As for `COc1cnc2c(Oc3ccc(NC(=O)c4ncc(C)n(-c5ccc(F)cc5)c4=O)cc3)ccnc2c1` [Compound 263, 4-(4-Fluorophenyl)-N-[4-[(7-methoxy-1,5-naphthyridin-4-yl)oxy]phenyl]-5-methyl-3-oxopyrazine-2-carboxamide], the IC50 in experiment [1] is more than 300 nM; in experiment [2], less than 100 nM; in experiment [3] it was less than 100 nM; in experiment [4], more than 300 nM.

Consider `COc1ccc2nccc(Oc3ccc(NC(=O)c4ncc(C)n(-c5ccc(F)cc5)c4=O)cc3F)c2n1` [Compound 264, N-[3-Fluoro-4-[(6-methoxy-1,5-naphthyridin-4-yl)oxy]phenyl]-4-(4-fluorophenyl)-5-methyl-3-oxopyrazine-2-carboxamide], for which the IC50 in experiment [1] is more than 300 nM; in experiment [2], less than 100 nM; in experiment [3], less than 100 nM; in experiment [4], more than 300 nM.

With `COc1cnc2c(Oc3ccc(NC(=O)c4cnc(C)n(-c5ccc(F)cc5)c4=O)cc3F)ccnc2c1` [Compound 265, N-[3-Fluoro-4-[(7-methoxy-1,5-naphthyridin-4-yl)oxy]phenyl]-1-(4-fluorophenyl)-2-methyl-6-oxopyrimidine-5-carboxamide], the IC50 in experiment [1] is 100 to 300 nM; in experiment [2], less than 100 nM; in experiment [3], less than 100 nM; in experiment [4] it was more than 300 nM.

For the molecule `COc1cnc2c(Oc3ccc(NC(=O)c4cnc(C)n(-c5ccc(F)cc5)c4=O)cc3)ccnc2c1` [Compound 266, 1-(4-Fluorophenyl)-N-[4-[(7-methoxy-1,5-naphthyridin-4-yl)oxy]phenyl]-2-methyl-6-oxopyrimidine-5-carboxamide], the IC50 in experiment [1] was more than 300 nM; in experiment [2] it was less than 100 nM; in experiment [3], less than 100 nM; in experiment [4] it was more than 300 nM.

As to `COc1cc2nccc(Oc3ccc(NC(=O)c4cn(C)cc(-c5c(C)cc(F)cc5C)c4=O)cc3F)c2nc1OC` [Compound 268, N-[4-[(6,7-Dimethoxy-1,5-naphthyridin-4-yl)oxy]-3-fluorophenyl]-5-(4-fluoro-2,6-dimethylphenyl)-1-methyl-4-oxopyridine-3-carboxamide], the IC50 in experiment [1] is more than 300 nM; in experiment [2], less than 100 nM; in experiment [3], less than 100 nM; in experiment [4], more than 300 nM.

As to `COCc1c(-c2ccc(F)cc2)c(=O)c(C(=O)Nc2ccc(Oc3ccnc4cc(OC)c(OC)nc34)c(F)c2)cn1C` [Compound 269, N-[4-[(6,7-Dimethoxy-1,5-naphthyridin-4-yl)oxy]-3-fluorophenyl]-5-(4-fluorophenyl)-6-(methoxymethyl)-1-methyl-4-oxopyridine-3-carboxamide], the IC50 was more than 300 nM in experiment [1], less than 100 nM in experiment [2], less than 100 nM in experiment [3] and more than 300 nM in experiment [4].

Take `COCc1c(-c2ccc(F)cc2)c(=O)c(C(=O)Nc2ccc(Oc3ccnc4cc(OC)cnc34)c(F)c2)cn1C` [Compound 270, N-[3-Fluoro-4-[(7-methoxy-1,5-naphthyridin-4-yl)oxy]phenyl]-5-(4-fluorophenyl)-6-(methoxymethyl)-1-methyl-4-oxopyridine-3-carboxamide]: the IC50 is more than 300 nM in experiment [1], less than 100 nM in experiment [2], less than 100 nM in experiment [3] and more than 300 nM in experiment [4].

Take `CCn1cc(C(=O)Nc2ccc(Oc3ccnc4cc(OC)c(OC)nc34)c(F)c2)c(=O)c(-c2ccc(F)cc2)c1CO` [Compound 271, N-[4-[(6,7-Dimethoxy-1,5-naphthyridin-4-yl)oxy]-3-fluorophenyl]-1-ethyl-5-(4-fluorophenyl)-6-(hydroxymethyl)-4-oxopyridine-3-carboxamide]: the IC50 in experiment [1] is 100 to 300 nM; in experiment [2] it was less than 100 nM; in experiment [3] it was less than 100 nM; in experiment [4], less than 100 nM.

For `CCn1cc(C(=O)Nc2ccc(Oc3ccnc4cc(OC)c(OC)nc34)cc2)c(=O)c(-c2ccc(F)cc2)c1CO` [Compound 272, N-[4-[(6,7-Dimethoxy-1,5-naphthyridin-4-yl)oxy]phenyl]-1-ethyl-5-(4-fluorophenyl)-6-(hydroxymethyl)-4-oxopyridine-3-carboxamide], the concentration for half-maximal inhibition (IC50) in experiment [1] was more than 300 nM; in experiment [2] it was less than 100 nM; in experiment [3], less than 100 nM; in experiment [4], 100 to 300 nM.

With `CCn1cc(C(=O)Nc2ccc(Oc3ccnc4cc(OC)cnc34)c(F)c2)c(=O)c(-c2ccc(F)cc2)c1CO` [Compound 273, 1-Ethyl-N-[3-fluoro-4-[(7-methoxy-1,5-naphthyridin-4-yl)oxy]phenyl]-5-(4-fluorophenyl)-6-(hydroxymethyl)-4-oxopyridine-3-carboxamide], the IC50 in experiment [1] was more than 300 nM; in experiment [2], less than 100 nM; in experiment [3], less than 100 nM; in experiment [4] it was more than 300 nM.

In the case of `CCn1cc(C(=O)Nc2ccc(Oc3ccnc4cc(OC)cnc34)cc2)c(=O)c(-c2ccc(F)cc2)c1CO` [Compound 274, 1-Ethyl-5-(4-fluorophenyl)-6-(hydroxymethyl)-N-[4-[(7-methoxy-1,5-naphthyridin-4-yl)oxy]phenyl]-4-oxopyridine-3-carboxamide], the IC50 in experiment [1] is more than 300 nM; in experiment [2] it was less than 100 nM; in experiment [3], less than 100 nM; in experiment [4], more than 300 nM.

With `Cc1ccc(C(=O)Nc2ccc(Oc3ccnc4cc(OCc5ccccc5)cnc34)c(F)c2)c(=O)n1-c1ccc(F)cc1` [Compound 275, 1-(4-Fluorophenyl)-N-[3-fluoro-4-[(7-phenylmethoxy-1,5-naphthyridin-4-yl)oxy]phenyl]-6-methyl-2-oxopyridine-3-carboxamide], the IC50 in experiment [1] was less than 100 nM; in experiment [2], less than 100 nM; in experiment [3], less than 100 nM; in experiment [4], 100 to 300 nM.

In the case of `COc1ccc2nccc(Oc3ccc(NC(=O)c4ccc(C)n(-c5ccc(F)cc5C)c4=O)cc3)c2n1` [Compound 276, 1-(4-Fluoro-2-methylphenyl)-N-[4-[(6-methoxy-1,5-naphthyridin-4-yl)oxy]phenyl]-6-methyl-2-oxopyridine-3-carboxamide], the IC50 in experiment [1] is less than 100 nM; in experiment [2] it was less than 100 nM; in experiment [3], less than 100 nM; in experiment [4], more than 300 nM.
